From ChEMBL document CHEMBL1833788, “Selective water-soluble gelatinase inhibitor prodrugs” (J Med Chem, 2011) come the findings set out here.

For series [1], the system named is Mus musculus. Briefly: AUC (0 to last) in C57B1/6 mouse plasma assessed as parent compound level at […], iv administered as single bolus dose. The class given is ADME, organism-based. The following applies: in vivo.
For series [2], the system named is Mus musculus. Briefly: Terminal half life in C57B1/6 mouse plasma assessed as parent compound level at […], iv administered as single bolus dose. The class given is ADME, organism-based. Particulars: in vivo.
Series [3] has as its system Mus musculus. Briefly: Prodrug conversion in C57B1/6 mouse assessed as 4-[4-((Thiiran-2-yl)methylsulphonyl)phenoxy]benzamine level in plasma at […], iv administered as single bolus dose after 120 to 123 mins by reversed-phase HPLC/UV analysis. Particulars: in vivo. It counts as ADME, organism-based.
Series [4] relates to Mus musculus. Briefly: Prodrug conversion in C57B1/6 mouse assessed as 4-[4-((Thiiran-2-yl)methylsulphonyl)phenoxy]benzamine level in plasma at […], iv administered as single bolus dose after 62 to 66 mins by reversed-phase HPLC/UV analysis. Particulars: in vivo, read-out: Drug metabolism. The class given is ADME, organism-based.
Series [5] deals with Mus musculus. Briefly: Prodrug conversion in C57B1/6 mouse assessed as N-(4-(4-(thiiran-2-ylmethylsulfonyl)phenoxy)phenyl)acetamide level in plasma at […], iv administered as single bolus dose after 62 to 66 mins by reversed-phase LC/MS analysis. The following applies: in vivo.
The test system of series [6] is Mus musculus. Briefly: AUC (0 to infinity) in C57B1/6 mouse plasma assessed as parent compound level at […], iv administered as single bolus dose. The class given is ADME, organism-based. Particulars: in vivo.
Series [7] relates to Mus musculus. Briefly: AUC (0 to last) in C57B1/6 mouse plasma assessed as N-(4-(4-(thiiran-2-ylmethylsulfonyl)phenoxy)phenyl)acetamide level at […], iv administered as single bolus dose. The class given is ADME, organism-based. The following applies: in vivo.
In series [8] the test system is Mus musculus. Briefly: Prodrug conversion in C57B1/6 mouse plasma assessed as parent compound level at […], iv administered as single bolus dose after 4 to 5 mins by reversed-phase LC/MS analysis. The class given is ADME, organism-based. Particulars: in vivo, read-out: Drug metabolism.
Series [9] concerns Mus musculus. Briefly: Distribution half life in C57B1/6 mouse plasma assessed as parent compound level at […], iv administered as single bolus dose. It counts as ADME, organism-based. Particulars: in vivo.
The test system of series [10] is Mus musculus. Briefly: Prodrug conversion in C57B1/6 mouse assessed as 4-[4-((Thiiran-2-yl)methylsulphonyl)phenoxy]benzamine level in plasma at […], iv administered as single bolus dose after 4 to 5 mins by reversed-phase HPLC/UV analysis. The class given is ADME, organism-based. The following applies: in vivo.

By AUC is commonly meant concentration integrated over time. For the molecule `Cl.N=C(N)NCCC[C@H](N)C(=O)Nc1ccc(Oc2ccc(S(=O)(=O)CC3CS3)cc2)cc1` (stereo not given in full), the AUClast turned out to be 360 µM·min in the series with Mus musculus [1] and 4.22 µM·min in the series with Mus musculus [7]. Besides, in the series with Mus musculus [2], the “beta t1/2” value was 260 min. The values for the Drug metabolism in the series on Mus musculus [3], in the series on Mus musculus [5] and in the series with Mus musculus [10] were 0.0248 µM, 0.0121 µM and 10.4 µM, respectively. Further, the concentration with Mus musculus [4] worked out at 90.8 nM; in the series with Mus musculus [8], 7.32 µM. For the same molecule, in the series with Mus musculus [6], the AUC came out at 363 µM·min. Besides, in the series with Mus musculus [9], the alphat1/2 is recorded as 0.88 min.
